The term IC50 denotes the concentration at which inhibition is half-maximal.

The target of the first assay is 5-hydroxytryptamine 1D receptor (Bos taurus, UniProt Q8MI13). Description: Binding Assay: 5-HT1D binding assays (agonist radioligand)were performed using bovine caudate membranes according to the methods of Heuring and Peroutka (J. Neurosci 1987, 7: 894-903). 5-HT1B (rat cerebral cortex) binding assays (agonist radioligand) were performed according to the method of Hoyer et. al. (Eur. J. Pharmacol. […], 118: 1-12). It is filed as tissue-based.
Chain of 5-hydroxytryptamine 1D receptor (Q8MI13 whole entry): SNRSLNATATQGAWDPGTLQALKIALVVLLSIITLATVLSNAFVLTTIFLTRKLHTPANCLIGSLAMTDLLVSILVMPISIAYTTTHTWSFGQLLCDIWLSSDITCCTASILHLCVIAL
Compound `CN1CCC[C@H]1Cc1c[nH]c2ccc(NC(=N)c3cccs3)cc12` came in with an IC50 of 1100 nM.
In turn, `CN1CCC(c2c[nH]c3ccc(NC(=N)c4cccs4)cc23)CC1` gave an IC50 of 570 nM.
For `CN1CC=C(c2c[nH]c3ccc(NC(=N)c4cccs4)cc23)CC1`, the IC50 stood at 51 nM.
`CCN1CCC(c2c[nH]c3ccc(NC(=N)c4cccs4)cc23)CC1` returned an IC50 of 680 nM.
Same read-out and setting: as for `CN1CCC(c2c[nH]c3ccc(/N=C(\N)c4ccco4)cc23)C1` (stereo not drawn), the figure is 560 nM; as for `CCSC(=N)Nc1ccc2[nH]cc(C3=CCN(C)CC3)c2c1`, 48 nM; as for `CN1CCC(c2c[nH]c3ccc(NC(=N)c4cccs4)cc23)C1` (stereo not drawn), 350 nM.
Still for that read-out and setting: the figure for `CN1CC=C(c2c[nH]c3ccc(NC(=S)NC(=O)c4ccccc4)cc23)CC1` is 56 nM; for `CN(C)CCc1c[nH]c2ccc(CNC(=N)c3cccs3)cc12` it is 290 nM.
On the same count and under the same terms, the figure for `CN1CC=C(c2c[nH]c3ccc(CNC(=N)c4cccs4)cc23)CC1` is 220 nM.
In the case of `CN1CCC[C@@H]1Cc1c[nH]c2ccc(NC(=N)c3cccs3)cc12`, the IC50 amounted to 130 nM.
The same measure, in the same setting: the figure for `CN1CC=C(c2c[nH]c3ccc(NC(=N)c4ccco4)cc23)CC1` is 50 nM.

The target of another assay is T1, Nitric oxide synthase 3 (Homo sapiens, UniProt P29474).
T1 sequence (P29474 whole entry): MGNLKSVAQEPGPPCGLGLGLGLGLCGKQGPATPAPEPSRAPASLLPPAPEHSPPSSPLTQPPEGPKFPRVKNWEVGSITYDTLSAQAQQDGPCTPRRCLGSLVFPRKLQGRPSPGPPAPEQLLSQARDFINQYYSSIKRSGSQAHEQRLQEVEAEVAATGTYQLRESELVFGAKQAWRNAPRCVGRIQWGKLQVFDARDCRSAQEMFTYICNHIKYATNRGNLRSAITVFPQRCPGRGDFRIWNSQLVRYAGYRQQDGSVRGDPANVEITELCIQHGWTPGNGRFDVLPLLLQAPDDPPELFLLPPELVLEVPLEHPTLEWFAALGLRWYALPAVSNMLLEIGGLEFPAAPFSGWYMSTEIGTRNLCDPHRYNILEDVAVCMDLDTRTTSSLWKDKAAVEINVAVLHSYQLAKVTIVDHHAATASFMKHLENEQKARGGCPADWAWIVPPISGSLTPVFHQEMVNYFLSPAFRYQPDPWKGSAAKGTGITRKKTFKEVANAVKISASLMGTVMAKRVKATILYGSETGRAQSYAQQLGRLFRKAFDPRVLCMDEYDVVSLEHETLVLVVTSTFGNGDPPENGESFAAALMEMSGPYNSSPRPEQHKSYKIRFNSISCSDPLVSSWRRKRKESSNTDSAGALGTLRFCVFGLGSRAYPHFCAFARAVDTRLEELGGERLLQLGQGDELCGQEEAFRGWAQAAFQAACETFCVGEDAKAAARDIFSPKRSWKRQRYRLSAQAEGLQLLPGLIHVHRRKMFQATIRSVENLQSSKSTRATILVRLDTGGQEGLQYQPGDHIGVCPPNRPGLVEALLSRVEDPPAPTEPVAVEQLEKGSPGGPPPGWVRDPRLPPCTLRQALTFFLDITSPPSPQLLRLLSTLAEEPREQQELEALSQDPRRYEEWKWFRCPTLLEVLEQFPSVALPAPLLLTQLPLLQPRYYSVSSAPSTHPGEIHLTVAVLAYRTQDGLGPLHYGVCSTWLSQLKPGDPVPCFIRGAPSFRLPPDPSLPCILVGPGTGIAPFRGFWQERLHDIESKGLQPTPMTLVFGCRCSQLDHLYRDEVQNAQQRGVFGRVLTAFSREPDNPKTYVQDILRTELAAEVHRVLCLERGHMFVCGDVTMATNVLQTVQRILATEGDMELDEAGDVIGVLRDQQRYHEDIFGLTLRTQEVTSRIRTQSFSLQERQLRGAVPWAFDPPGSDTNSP
The experiment in a line: Enzyme Assay: Enzyme assay using recombinant human inducible NOS (iNOS), human endothelial constitutive NOS (eNOS) or human neuronal constitutive NOS (nNOS).
In the case of `CN1CC[C@@H](c2c[nH]c3ccc(/N=C(\N)c4cccs4)cc23)[C@H](F)C1`, the IC50 came out at 40100 nM.

The values above are taken from ChEMBL document CHEMBL3638726, “Substituted indole compounds having NOS inhibitory activity” (2013).
